These results are taken from US20110217280A1, “METHODS FOR TREATING NEUROPSYCHIATRIC CONDITIONS” (priority 2007, published 2011).

Test [1] has as its system double transgenic GFP-M/DN-DISC1 mice. The test can be described thus: In vivo monitoring of dendritic spine plasticity by two photon laser scanning microscopy. The conditions noted are these: 1 mg/kg i.p. once per day, imaging P40 to P70. The source says:
In the following experiment, dendritic spine plasticity is directly monitored in vivo by two photon laser scanning microscopy (TPLSM) in double transgenic GFP-M/DN-DISC1 mice treated with a PAK activator or a placebo. Mice (C57BL/6) expressing GFP in a subset of cortical layer 5 neurons (transgenic line GFP-M described in Feng et al., 2000, Neuron 28:41-51) are crossed with DN-DISC1 C57BL/6 DN-DISC1 mice (Hikida et al (2007), Proc Natl Acad Sci USA, 104(36):14501-14506) to obtain heterozygous transgenic mice, which are then crossed to obtain homozygous double transgenic GFPM/DN-DISC1 mice used in this study.
GFP-M/DN-DISC1 animals aged 28-61 days are anesthetized using avertin ([…]; Sigma, St. Louis, Mo.). The skull is exposed, scrubbed, and cleaned with ethanol. […]
For in vivo two photon imaging, a two-photon laser scanning microscope is used as described in Majewska et al, (2000), Pflügers Arch, 441:398-408. […] Fluorescence is detected using photomultiplier tubes (HC125-02; Hamamatsu, Shizouka, Japan) in whole-field detection mode. The craniotomy over the visual cortex is initially identified under whole-field fluorescence illumination, and areas with superficial dendrites are identified using a 20×, 0.95 numerical aperture lens (IR2; Olympus Optical). […]

A further test deals with PAK1 (Homo sapiens, UniProt Q13153). The note with it: independent of GTPase activators such as Cdc42 or Rac; cited from earlier work.
Chain of PAK1 (Q13153 whole entry): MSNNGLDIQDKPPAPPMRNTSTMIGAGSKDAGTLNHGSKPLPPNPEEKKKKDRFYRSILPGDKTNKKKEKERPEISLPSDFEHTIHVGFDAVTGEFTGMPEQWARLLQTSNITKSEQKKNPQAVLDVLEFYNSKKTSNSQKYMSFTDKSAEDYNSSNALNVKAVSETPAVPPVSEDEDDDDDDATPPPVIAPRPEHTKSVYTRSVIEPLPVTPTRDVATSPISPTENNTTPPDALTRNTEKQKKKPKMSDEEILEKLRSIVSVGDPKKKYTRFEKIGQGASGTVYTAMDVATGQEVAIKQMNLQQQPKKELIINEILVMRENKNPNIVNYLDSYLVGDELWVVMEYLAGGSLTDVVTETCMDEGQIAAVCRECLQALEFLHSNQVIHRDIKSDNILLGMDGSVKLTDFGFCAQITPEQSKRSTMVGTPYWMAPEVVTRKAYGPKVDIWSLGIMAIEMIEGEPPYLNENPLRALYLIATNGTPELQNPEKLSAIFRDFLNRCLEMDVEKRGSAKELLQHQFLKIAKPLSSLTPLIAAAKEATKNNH

Regarding `CCCCCCCCCCCCCC=CC(O)C(N)CO` (stereo not drawn) [sphingosine, 2-amino-4-octadecene-1,3-diol], in test [1], the “spine density relative to untreated control animals” value was “increased spine density” and the “spine turnover relative to untreated control animals” value was “reduced spine turnover”. In addition, the “activation of PAK1” value at PAK1 is “activate PAK1 independently of GTPase activators”.
